Laboratory results as given in US20180161425A1, “NOVEL PROTEIN STRUCTURE USED FOR EFFICIENT ANTIBODY PRODUCTION IN IMMUNIZATION” (priority 2014, published 2018).
“And” between values parts separate entries of the source, which are not always exact repeats. Identical values can stand only once.

Legend:
MDCK cells = assay type: cell-based
MCP-1 = system: MCP-1; parameters: species or system mice; conditions: mouse, in vivo

Substance	cell binding activity when compared to AH2 peptide (MDCK cells)	cell binding and internalization of FITC labeled peptide (MDCK cells)	other results
RTLSLLRRLFFKSDLGFL [AHV-AH]	40%	–	–
MPRLFKIYAKNYFLTYPN [TYLCV-AH]	25%	–	–
flagellin	–	–	plasma MCP-1 level (MCP-1): 3000 pg/mL and 2600 pg/mL
DRLFFKCVYRLFKHGLKRG [AH4]	–	did not bind to the membrane as well as AH2, they did all bind and were internalized to the cell at different levels	–
MHSATAAQLETLRLFKFP [ANMV-AH]	15%	–	–
DRLFFKCIYRRFKYGLKRG [AH5]	–	did not bind to the membrane as well as AH2, they did all bind and were internalized to the cell at different levels	–
DRLFFKCIYRRLKYGLKRG [AH3]	–	did not bind to the membrane as well as AH2, they did all bind and were internalized to the cell at different levels	–
KRLFKLSYIETRYMASDK [SWS-AH]	24%	–	–
